Like-named read-outs stand apart in the source and are kept apart here. One block for each molecule: values may come before it.
Columns and labels:
[1] = Pharmacokinetic evaluation (1): cassette PK in Balb/c male mice, plasma; type: in vivo; conditions: for C0 / clearance / Vd / AUC0-last / T1/2 / Tlast / Cmax / Tmax / AUC(0-t) / half-life: mouse plasma; for Vd: read-out: Vdss; for F: mouse, PO 2 mg/kg vs IV 0.4 mg/kg
Description: Test compounds were mixed with 10% dimethyl sulfoxide/50% polyethylene glycol 200/40% water (compounds 1, 4, 10, 17) or 20% N,N-dimethylacetamide/80% water (compound 5), vortexed and sonicated to prepare a nearly clear solution of 0.08 mg/mL (compounds 1, 4, 10, 17) or 0.50 mg/mL (compound 5), then filtered through a microporous membrane for next step. Balb/c male mice of 18 to 20 grams were selected and administered intravenously with the candidate compound solution at a dose of 0.4 (compounds 1, 4, 10, 17) or 1 mg/kg (compound 5). Test compounds were mixed with 10% dimethyl sulfoxide/50% polyethylene glycol 200/40% water (compounds 1, 4, 10, 17) or 20%-hydroxypropyl-β-cyclodextrin (compound 5), vortexed and sonicated to prepare a nearly clear solution of 0.2 mg/mL (compounds 1, 4, 10, 17) or 1 mg/mL (compound 5), then filtered through a microporous membrane for next step. Balb/c male mice of 18 to 20 grams were selected and orally administered with the candidate compound solution at a dose of 2 (compounds 1, 4, 10, 17) or 5 mg/kg (compound 5). Whole blood was collected for a certain period of time, and plasma was prepared, then drug concentration was detected by LC-MS/MS method, and pharmacokinetic parameters were calculated by Phoenix WinNonlin software (Pharsight, USA).
IV: intravenous injection; PO: oral; C0: instantaneous […] concentration after intravenous injection; Cmax: highest plasma concentration after administration; Tmax: time required to reach peak of drug concentration after administration; T1/2: time required for the plasma drug concentration to decrease by half, Vdss: apparent volume of distribution, refers to the proportional constant of the drug dose in vivo and the blood drug concentration when the drug reaches a dynamic equilibrium in vivo. Cl: clearance rate, refers to the […] cleared from the body per unit time; Tlast: time at the last detection point; AUC0-last: area under the drug-time curve, refers to the area covered by the plasma concentration curve and the time axis; F: a measure of the speed and degree of drug absorption into the blood circulation, which is an important indicator for evaluating the degree of drug absorption.

[2] = target: T1, Human DNA-PK (Homo sapiens, UniProt P78527); assay: DNA-dependent protein kinase (DNA-PK) inhibitory activity screening (Eurofins, HTRF); type: biochemical; conditions: ATP: 10 μM; read-out: DNA-PK kinase inhibition IC50
T1 construct: purchased Eurofins (Eurofins Pharma Discovery Service)
Description: Experimental Embodiment 1: DNA-Dependent Protein Kinase (DNA-PK) Inhibitory Activity Screening Experiment
This experiment was tested in the Eurofins
Human DNA-PK; Mg/ATP; GST-cMyc-p53; EDTA; Ser15 antibody; ATP: 10 μM.
Experimental Method (Eurofins Pharma Discovery Service):
DNA-PK (h) was incubated in assay buffer containing 50 nM GST-cMyc-p53 and Mg/ATP (according to the required concentration). The reaction was initiated by adding Mg/ATP mixture. After 30 minutes of incubation at room temperature, the reaction was stopped by adding a stop solution containing EDTA. Finally, detection buffer (containing labeled anti-GST monoclonal antibody and europium-labeled anti-Ser15 antibody against phosphorylated p53) was added. The plate was then read in time-resolved fluorescence mode, and the homogeneous time-resolved fluorescence (HTRF) signal was determined according to the formula HTRF=10000×(Em665 nm/Em620 nm).

[3] = male, Balb/c, PO 2 mg/kg, read-out: Tmax

C0 ([1]; male, Balb/c, IV 0.4 mg/kg): 959 nM | clearance ([1]; male, Balb/c, IV 0.4 mg/kg): 37.7 mL/min/kg | Vd ([1]; male, Balb/c, IV 0.4 mg/kg): 1.51 L/kg | AUC0-last ([1]; IV 0.4 mg/kg): 0.426 µM·h | T1/2 ([1]; IV 0.4 mg/kg): 35.9 min | Tlast ([1]; IV 0.4 mg/kg): 4 h | AUC0-last ([1]; PO 2 mg/kg): 2.497 µM·h | Cmax ([1]; PO 2 mg/kg): 1420 nM | T1/2 ([1]; PO 2 mg/kg): 50.5 min | Tlast ([1]; PO 2 mg/kg): 8 h | Tmax ([1]; PO 2 mg/kg): 30 min | F [1]: 96.4% | IC50 [2]: 2 nM
SMILES: Cc1cc2ncnn2cc1Nc1ncc2c(n1)n(N1CCOCC1)c(=O)n2C [Compound 1]

IC50 [2]: 5 nM
SMILES: Cc1cc2ncnn2cc1Nc1ncc2c(n1)n(N1CCC(C#N)CC1)c(=O)n2C [Compound 14]

IC50 [2]: 1 nM
SMILES: Cc1cc2ncnn2cc1Nc1ncc2c(n1)n(N1CC3CCCC3C1)c(=O)n2C (stereo not drawn) [Compound 15]

IC50 [2]: 0.5 nM
SMILES: Cc1cc2ncnn2cc1Nc1ncc2c(n1)n(N1CC3CC3C1)c(=O)n2C (stereo not drawn) [Compound 16]

IC50 [2]: 0.9 nM
SMILES: Cc1cc2nncn2cc1Nc1ncc2c(n1)n(N1C3CCC1COC3)c(=O)n2C [Compound 18]

IC50 [2]: 0.6 nM
SMILES: Cc1cc2nccn2cc1Nc1ncc2c(n1)n(N1CC3CCC(C1)O3)c(=O)n2C [Compound 19]

IC50 [2]: 0.9 nM
SMILES: Cc1cc2nccn2cc1Nc1ncc2c(n1)n(N1C3CCC1COC3)c(=O)n2C [Compound 20]

IC50 [2]: 0.5 nM
SMILES: Cc1cn2ncnc2cc1Nc1ncc2c(n1)n(N1CC3CCC(C1)O3)c(=O)n2C [Compound 21]

IC50 [2]: 10 nM
SMILES: Cc1nc2nccn2cc1Nc1ncc2c(n1)n(N1CC3CCC(C1)O3)c(=O)n2C [Compound 23]

More lines, now with the values behind:

SMILES: Cc1cc2ncnn2cc1Nc1ncc2c(n1)n(N1C3CCC1COC3)c(=O)n2C [Compound 4]
AUC(0-t) ([1]; male, Balb/c, IV 0.4 mg/kg): 0.286 µM·h | C0 ([1]; male, Balb/c, IV 0.4 mg/kg): 919 nM | clearance ([1]; male, Balb/c, IV 0.4 mg/kg): 57 mL/min/kg | half-life ([1]; male, Balb/c, IV 0.4 mg/kg): 14.4 min | Vd ([1]; male, Balb/c, IV 0.4 mg/kg): 1.08 L/kg | AUC(0-t) ([1]; male, Balb/c, PO 2 mg/kg): 1.74 µM·h | Cmax ([1]; male, Balb/c, PO 2 mg/kg): 1600 nM | half-life ([1]; male, Balb/c, PO 2 mg/kg): 36.5 min | Tmax [1, 3]: 15 min | Tlast ([1]; IV 0.4 mg/kg): 2 h | Tlast ([1]; PO 2 mg/kg): 4 h | F [1]: 123% | IC50 [2]: 1 nM

SMILES: Cc1cc2ncnn2cc1Nc1ncc2c(n1)n(N1CC3CC(C1)O3)c(=O)n2C [Compound 6]
IC50 [2]: 1 nM

SMILES: Cc1cc2ncnn2cc1Nc1ncc2c(n1)n(N1CCC(F)(F)CC1)c(=O)n2C [Compound 7]
IC50 [2]: 2 nM

SMILES: Cc1cc2ncnn2cc1Nc1ncc2c(n1)n(N1CCOC3(CC3)C1)c(=O)n2C [Compound 10]
AUC(0-t) ([1]; male, Balb/c, IV 0.4 mg/kg): 0.64 µM·h | C0 ([1]; male, Balb/c, IV 0.4 mg/kg): 1120 nM | clearance ([1]; male, Balb/c, IV 0.4 mg/kg): 25.4 mL/min/kg | half-life ([1]; male, Balb/c, IV 0.4 mg/kg): 35.5 min | Vd ([1]; male, Balb/c, IV 0.4 mg/kg): 0.883 L/kg | AUC(0-t) ([1]; male, Balb/c, PO 2 mg/kg): 3.83 µM·h | Cmax ([1]; male, Balb/c, PO 2 mg/kg): 2060 nM | half-life ([1]; male, Balb/c, PO 2 mg/kg): 73.2 min | Tmax [1, 3]: 30 min | Tlast ([1]; IV 0.4 mg/kg): 4 h | Tlast ([1]; PO 2 mg/kg): 8 h | F [1]: 120% | IC50 [2]: 2.5 nM

SMILES: Cc1cc2ncnn2cc1Nc1ncc2c(n1)n(N1CCC3(CC1)COC3)c(=O)n2C [Compound 11]
IC50 [2]: 5 nM

SMILES: Cc1cc2ncnn2cc1Nc1ncc2c(n1)n(N1CCC3(CCO3)CC1)c(=O)n2C [Compound 12]
IC50 [2]: 4 nM

SMILES: Cc1cc2ncnn2cc1Nc1ncc2c(n1)n(N1CCOC3(CCC3)C1)c(=O)n2C [Compound 13]
IC50 [2]: 2 nM

SMILES: Cc1cn2ncnc2cc1Nc1ncc2c(n1)n(N1C3CCC1COC3)c(=O)n2C [Compound 22]
IC50 [2]: 0.4 nM

SMILES: Cc1nc2nccn2cc1Nc1ncc2c(n1)n(N1C3CCC1COC3)c(=O)n2C [Compound 24]
IC50 [2]: 68 nM
